Test results reported in US20160213739A1, “TREATMENTS FOR DISORDERS USING GUANYLATE CYCLASE C AGONISTS” (Ironwood Pharmaceuticals, Inc., priority 2011, published 2016).
Positions of bridges follow the written chain, without caps; N, C: chain ends. Non-standard residues stand in square brackets, D forms with d. Residues, ends and D or L forms follow the SMILES beside them. pS = N[C@@H](COP(=O)(O)O)C(=O)O

Experiments:
[1] = In vitro metabolism in mouse jejunum loop fluid; format: in vitro ADME; conditions: 37° C.; for metabolism in the control reaction: control reaction (1 M Tris-HCl), 120 minute incubation
Method: The purpose of this study was to determine the stability of phosphorylated peptides in mouse jejunal loop fluid. […] The isotopically labeled peptide 2 was synthesized with ^13C, ^15N-labeled alanine and leucine (i.e., with a sequence CCpS[^13C6, ^15N]LCCNP[^13C6, ^15N]ACTGC).
Each peptide was synthesized by American Peptide Company, Inc., and was stored desiccated at −20° C. A 1 mg/mL solution for each of the non-labeled peptides was prepared in 1 M tris (hydroxymethyl) aminomethane hydrochloride (Tris-HCl), pH 8 just prior to conducting the mouse intestinal loop fluid assay. A 500 ng/mL solution of ^13C, ^15N-labeled peptide 2 was prepared in 0.1% formic acid in water and was utilized to dilute the jejunum samples for post-assay LC-MS/MS analysis.
To collect the fluid, mice were fasted overnight with full access to water. They were then anesthetized with isofluorane for surgery and subjected to laparotomy in which the small intestine was exteriorized. Jejunum loops of 3 to 4 cm in length were made with sutures starting at 7 cm from the pyloric sphincter of the stomach. Once the loops were formed, they were injected with 200 μL of phosphate buffered saline (PBS) buffer (10 mM, pH 7.4). The abdominal wall and skin of the animals were then sutured, and the animals were allowed to recover for 30 minutes. Following recovery, the animals were sacrificed, the loops were then excised and the fluid inside was recovered and stored at −80° C. until use.
For each peptide, 254 of the 1 mg/mL peptide stock solution was added to 25 of 1 M Tris-HCl and 25 μL of 10× calf intestinal phosphatase (CIP) buffer containing 500 mM Tris-HCl, 1 M sodium chloride (NaCl), […] (MgCl2), pH 8. The reactions were initiated by adding 175 pit of the mouse jejunum loop fluid or 175 μL of the 1 M Tris-HCl pH8 buffer for the control reactions. The final concentration of each peptide was 100 μg/mL. The reactions were continuously mixed and maintained at 37° C. on a plate shaker. At 0, 2, 5, 10, 20, 30, 60, 90 and 120 minutes after adding the mouse intestinal loop fluid, a 25 μL aliquot was taken and added to 25 μL of 4° C. 12% trichloroacetic acid to stop the reaction. An additional 200 μL of 0.1% formic acid in water was added to these reactions for dilution purposes. These samples were then further diluted by taking 20 μL of each sample and adding it to 480 μL of 0.1% formic acid in water containing 500 ng/mL of the internal standard ^13C, ^15N-labeled peptide 2.
All samples were analyzed using an Applied Biosystems/MDS SCIEX API 4000 triple quadrupole mass spectrometer equipped with a high-performance liquid chromatography (HPLC) system. The mass spectrometer was operated in multiple reaction monitoring (MRM) mode, with resolution set to 1.2 Da.
The LC-MS/MS data were processed using Analyst version 1.4.2 software (Applied Biosystems/MDS SCIEX). The peak area ratio (ratio of analyte peak area to internal standard peak area) was used to calculate the percent remaining of each peptide.

[2] = target: T1, Calf intestinal alkaline phosphatase (CIP) (Bos taurus, UniProt P19111); test: Alkaline phosphatase reaction on peptide substrates; format: in vitro ADME; conditions: for Dephospho (%) / Remaining (%): Alkaline phosphatase pH 8, 90 minutes at 37° C.
T1 construct: purchased New England BioLabs M0290S
T1 sequence (P19111 20-506): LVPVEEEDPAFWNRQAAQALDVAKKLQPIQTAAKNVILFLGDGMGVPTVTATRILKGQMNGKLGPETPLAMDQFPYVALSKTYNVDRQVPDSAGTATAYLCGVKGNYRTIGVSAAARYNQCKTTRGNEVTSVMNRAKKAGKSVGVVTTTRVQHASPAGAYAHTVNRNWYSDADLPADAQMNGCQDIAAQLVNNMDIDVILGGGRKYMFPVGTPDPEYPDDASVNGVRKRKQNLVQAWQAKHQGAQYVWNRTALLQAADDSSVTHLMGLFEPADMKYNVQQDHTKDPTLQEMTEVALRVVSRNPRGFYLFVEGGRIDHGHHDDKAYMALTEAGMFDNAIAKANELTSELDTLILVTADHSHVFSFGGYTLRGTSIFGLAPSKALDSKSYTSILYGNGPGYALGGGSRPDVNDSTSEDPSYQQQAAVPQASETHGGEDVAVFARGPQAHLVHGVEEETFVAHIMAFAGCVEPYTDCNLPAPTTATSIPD
Method: (§1) For the alkaline phosphatase reactions, peptide stocks were prepared at 1 mg/mL in 0.1 M Tris-HCl pH 8, which were stored at −20° C. until assays were conducted. For the acid phosphatase reactions, peptide stocks were prepared at 1 mg/mL in 50 mM sodium phosphate pH 6, which was stored at −20° C. until assays were conducted.
Calf intestinal alkaline phosphatase (CIP) was obtained from New England BioLabs, Ipswich, Mass. Cat # M0290S. The CIP reaction solution was prepared by dilution with buffer (50 mM KCl, 10 mM Tris-HCl pH 8, 1 mM MgCl2, 50% glycerol) to 0.5 units/4. The alkaline phosphatase reaction solutions were assembled in 20 μL quantities containing:
2 μL 10×CIP buffer (1M NaCl, 500 mM Tris-HCl pH 8, 100 mM MgCl2)
2 μL peptide stock (1 mg/mL)
4 μL alkaline phosphatase (0, 0.5 or 2 units)
The reaction solutions were mixed gently and incubated for 90 minutes at 37° C. These reaction solutions were stored at −20° C. until analysis. For analysis, the reaction solutions were diluted from 7.5 μL of CIP treated peptide to 50 μL with 0.1% formic acid in water to a final concentration of 10 μM.
Control reactions were assembled for enzyme activity containing 10 mM p-nitrophenylphosphate in place of peptide. After incubation, the reactions were diluted with 0.1 mL of 100 mM borate buffer pH 9 and read at the absorbance of 405 nm to monitor p-nitrophenol appearance.

[3] = target: T2, human prostate acid phosphatase (HuPrAP) (Homo sapiens, UniProt P15309); test: Acid phosphatase reaction, human prostate acid phosphatase; format: in vitro ADME; conditions: Human prostatic acid phosphatase pH 5, 90 minutes at 37° C.
T2 construct: purchased MP Biochemicals 153872
T2 sequence (P15309 33-386): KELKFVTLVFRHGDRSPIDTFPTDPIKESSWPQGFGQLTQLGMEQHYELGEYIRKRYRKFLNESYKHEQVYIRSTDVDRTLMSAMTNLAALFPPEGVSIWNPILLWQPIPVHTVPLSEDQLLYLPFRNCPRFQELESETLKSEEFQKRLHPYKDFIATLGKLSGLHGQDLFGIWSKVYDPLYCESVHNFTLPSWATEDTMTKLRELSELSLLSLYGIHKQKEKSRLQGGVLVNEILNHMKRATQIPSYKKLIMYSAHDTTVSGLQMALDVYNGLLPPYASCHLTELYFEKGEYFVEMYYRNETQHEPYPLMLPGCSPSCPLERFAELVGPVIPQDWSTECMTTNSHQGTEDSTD
Method: as §1
(§2) Potato acid phosphatase (PoAP) was obtained from Sigma, St. Louis, Miss. Cat #P1146 and human prostate acid phosphatase (HuPrAP) was obtained from MP Biochemicals, Solon, Ohio. Cat #153872. The acid phosphatases were dissolved to provide a solution containing 0.5 units AP/4 using 50 mM sodium acetate pH 5, 0.2 mM MgCl2. The acid phosphatase reactions were assembled in 20 μL quantities containing: • 2 μL 10× acid phosphatase buffer (500 mM sodium acetate pH 5, 2 mM MgCl2) • 2 μL peptide stock (1 mg/mL) • 12 μL H2O • 4 μL acid phosphatase (0.5 or 2 units)
(§3) The reaction solutions were mixed gently and incubated for 90 minutes at 37° C. The reaction solutions were stored at −20° C. for later analysis. For analysis, 7.5 μL acid phosphatase reactions were diluted to 50 μL with 0.1% formic acid in water to a final concentration of 10 μM. The control reactions for enzyme activity were assembled and diluted to 10 mM p-nitrophenylphosphate in place of peptide. After incubation, the reactions were diluted with 0.1 mL of 100 mM borate buffer pH 9 and read at the absorbance of 405 nm to monitor p-nitrophenol appearance.

[4] = tested on: Potato acid phosphatase (PoAP); test: Acid phosphatase reaction, potato acid phosphatase; format: in vitro ADME; conditions: Potato acid phosphatase pH 5, 90 minutes at 37° C.
Method: as §1, §2, §3

[5] = after oral administration at therapeutic dose levels; cited from earlier work

SMILES: CC(C)C[C@@H]1NC(=O)[C@H](CO)NC(=O)[C@@H]2CSSC[C@@H]3NC(=O)[C@H](C)NC(=O)[C@@H]4CCCN4C(=O)[C@H](CC(N)=O)NC(=O)[C@H](CSSC[C@H](N)C(=O)N2)NC(=O)[C@H](CSSC[C@@H](C(=O)O)NC(=O)CNC(=O)[C@H]([C@@H](C)O)NC3=O)NC1=O [Dephospho-Peptide 2, CCSLCCNPACTGC] (H-CCSLCCNPACTGC-OH; disulfide 1-6, 2-10, 5-13 (inferred); N-terminus and C-terminus assumed)
- metabolism in the control reaction [1]: not metabolized
- degradation in mouse intestinal fluid compared with peptide 2 [1]: degraded faster

SMILES: CC(C)C[C@@H]1NC(=O)[C@H](COP(=O)(O)O)NC(=O)[C@@H]2CSSC[C@@H]3NC(=O)[C@H](C)NC(=O)[C@@H]4CCCN4C(=O)[C@H](CC(N)=O)NC(=O)[C@H](CSSC[C@H](N)C(=O)N2)NC(=O)[C@H](CSSC[C@@H](C(=O)N[C@@H](Cc2ccc(O)cc2)C(=O)O)NC(=O)CNC(=O)[C@H]([C@@H](C)O)NC3=O)NC1=O [Peptide 1, CCpSLCCNPACTGCY] (H-CC[pS]LCCNPACTGCY-OH; disulfide 1-6, 2-10, 5-13 (inferred); N-terminus and C-terminus assumed)
- Dephospho (%) [2]: 100%
- Remaining (%) [2]: 0%
- Dephospho (%) [3]: 6.2%
- Dephospho (%) [4]: 22.1%

SMILES: CC(C)C[C@@H]1NC(=O)[C@H](COP(=O)(O)O)NC(=O)[C@@H]2CSSC[C@@H]3NC(=O)[C@H](C)NC(=O)[C@@H]4CCCN4C(=O)[C@H](CC(N)=O)NC(=O)[C@H](CSSC[C@H](N)C(=O)N2)NC(=O)[C@H](CSSC[C@@H](C(=O)O)NC(=O)CNC(=O)[C@H]([C@@H](C)O)NC3=O)NC1=O [Peptide 2, CCpSLCCNPACTGC] (H-CC[pS]LCCNPACTGC-OH; disulfide 1-6, 2-10, 5-13 (inferred); N-terminus and C-terminus assumed)
- metabolism in the control reaction [1]: not metabolized
- metabolite formed ([1]; mouse jejunum fluid, increased for the first 20 minutes then slow decrease): dephospho-peptide 2
- Dephospho (%) [2]: 100%
- Dephospho (%) [3]: 4.1%

SMILES: CC(C)C[C@@H]1NC(=O)[C@H](CCC(=O)O)NC(=O)[C@@H]2CSSC[C@@H]3NC(=O)[C@H](C)NC(=O)[C@@H]4CCCN4C(=O)[C@H](CC(N)=O)NC(=O)[C@H](CSSC[C@H](N)C(=O)N2)NC(=O)[C@H](CSSC[C@@H](C(=O)N[C@@H](Cc2ccc(O)cc2)C(=O)O)NC(=O)CNC(=O)[C@H]([C@@H](C)O)NC3=O)NC1=O [Peptide 3, CCELCCNPACTGCY] (H-CCELCCNPACTGCY-OH; disulfide 1-6, 2-10, 5-13 (inferred); N-terminus and C-terminus assumed)
- metabolism in the control reaction [1]: not metabolized
- degradation in mouse intestinal fluid compared with peptide 2 [1]: degraded faster
- peptide detected after 90 minutes ([1]; mouse jejunum fluid, 100 μg/mL peptide): not detected
- Effect of CIP treatment on the peptide (LC-MS) ([2]; with and without calf intestinal alkaline phosphatase, data not shown): not affected

SMILES: C[C@@H]1NC(=O)[C@@H]2CCCN2C(=O)[C@H](CC(N)=O)NC(=O)[C@@H]2CSSC[C@H](N)C(=O)N[C@H]3CSSC[C@H](NC1=O)C(=O)N[C@@H]([C@@H](C)O)C(=O)NCC(=O)N[C@H](C(=O)N[C@@H](Cc1ccc(O)cc1)C(=O)O)CSSC[C@H](NC(=O)[C@H](Cc1ccc(O)cc1)NC(=O)[C@H](CCC(=O)O)NC3=O)C(=O)N2 [linaclotide, Linaclotide] (H-CCEYCCNPACTGCY-OH; disulfide 1-6, 2-10, 5-13)
- levels seen systemically [5]: no detectable levels

SMILES: O=[N+]([O-])c1ccc(OP(=O)(O)O)cc1 [p-nitrophenylphosphate]
- Dephospho (%) [2]: 100%
- Remaining (%) [2]: 0%
- Dephospho (%) [3]: 100%
- Remaining (%) [3]: 0%
- Dephospho (%) [4]: 100%
- Remaining (%) [4]: 0%
